BindingDB's records for doi:10.1074/jbc.M114.566729 (University of Colorado School of Medicine, 2014)

Molecular target: T1, Eyes absent homolog 2 [253-538] (Human, UniProt O00167)
T1 construct: 253-538
T1 sequence (O00167 whole entry): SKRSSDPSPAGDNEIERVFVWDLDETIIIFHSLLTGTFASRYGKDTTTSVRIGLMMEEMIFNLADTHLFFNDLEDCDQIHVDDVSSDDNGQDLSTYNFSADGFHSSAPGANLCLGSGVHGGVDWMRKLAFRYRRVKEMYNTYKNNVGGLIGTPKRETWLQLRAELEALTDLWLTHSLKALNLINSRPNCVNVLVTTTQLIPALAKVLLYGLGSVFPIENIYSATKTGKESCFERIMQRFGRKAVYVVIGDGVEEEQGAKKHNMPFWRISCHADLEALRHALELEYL
Assay: Eya Phosphatase Assay
Details: pH 6.5; 25 °C
Protocol: Eya activity was measured in 50-μl reactions using black, 96-well, half-volume microtiter plates (Greiner Bio-one) with the substrate OMFP (3-O-methylfluoresceinphosphate, Sigma-Aldrich), which is converted to a fluorescent product OMF upon dephosphorylation. […] Reactions were started by the addition of OMFP, preceded for 1 h at room temperature followed by terminating the reaction with the addition of 75mMEDTA.

SMILES: O=C(N/N=C/c1ccc(Sc2ccccn2)s1)c1cccc(F)c1 [NCGC00249327]
- IC50: 2900 nM
